From patent US9487508B2, “SGC stimulators” (IRONWOOD PHARMACEUTICALS, INC., priority 2012, dated 2016)

Legend:
[1] = system: lambs with acute pulmonary hypertension; conditions: cited from earlier work; for pulmonary vasodilation / effect on mean arterial pressure / transpulmonary cGMP release / systemic arterial oxygenation: inhaled microparticles, awake lambs; for pulmonary vasodilation: U-46619 infused to mean pulmonary arterial pressure 35 mm Hg; for effect on mean arterial pressure / transpulmonary cGMP release / systemic arterial oxygenation: U-46619 infusion
[2] = target: T1, soluble guanylate cyclase (sGC) (Homo sapiens, UniProt Q02108+Q02153); experiment: sGC-HEK-cGMP assay with SNP incubation (LC/MS read-out); format: cell-based; conditions: 10 μM SNP; for Emax at 1 µM: 1 μM compound, read-out: HEK assay (Percent Emax at 1 μM); for Emax at 1 µM / Emax at 10 µM / Emax at 30 µM: 100% = BAY 41-2272 at 10 μM with 100 μM SNP; for Emax at 10 µM: 10 μM compound, read-out: HEK assay (Percent Emax at 10 μM); for Emax at 30 µM: 30 μM compound, read-out: HEK assay (Percent Emax at 30 μM); for Emax: maximum of full concentration-response curve, top not fitted to 100%, relative to BAY 41-2272 control, read-out: HEK assay Emax-unconstrained (Percent); for EC50: top of curve not fitted to 100%, read-out: HEK assay EC50-unconstrained
T1 construct: endogenously expressing soluble guanylate cyclase (sGC); endogenous in cells; host or cells: HEK293
T1 sequence (Q02153 1-619): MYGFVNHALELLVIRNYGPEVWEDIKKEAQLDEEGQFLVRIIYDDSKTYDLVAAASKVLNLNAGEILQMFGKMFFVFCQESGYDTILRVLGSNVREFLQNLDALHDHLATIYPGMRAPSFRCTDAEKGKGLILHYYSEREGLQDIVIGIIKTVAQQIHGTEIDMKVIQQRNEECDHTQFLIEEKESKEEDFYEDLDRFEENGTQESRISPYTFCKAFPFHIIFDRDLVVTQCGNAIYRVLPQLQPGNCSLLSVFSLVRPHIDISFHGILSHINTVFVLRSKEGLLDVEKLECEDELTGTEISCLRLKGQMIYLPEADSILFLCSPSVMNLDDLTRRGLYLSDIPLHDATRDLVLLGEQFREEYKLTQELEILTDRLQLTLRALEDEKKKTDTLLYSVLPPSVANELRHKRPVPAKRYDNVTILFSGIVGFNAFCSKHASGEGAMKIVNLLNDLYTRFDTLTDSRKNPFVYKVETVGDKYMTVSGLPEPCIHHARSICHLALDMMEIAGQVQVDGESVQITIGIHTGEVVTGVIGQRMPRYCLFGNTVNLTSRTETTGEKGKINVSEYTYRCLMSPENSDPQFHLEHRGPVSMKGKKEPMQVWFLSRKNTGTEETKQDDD
T1 sequence (Q02108 1-690): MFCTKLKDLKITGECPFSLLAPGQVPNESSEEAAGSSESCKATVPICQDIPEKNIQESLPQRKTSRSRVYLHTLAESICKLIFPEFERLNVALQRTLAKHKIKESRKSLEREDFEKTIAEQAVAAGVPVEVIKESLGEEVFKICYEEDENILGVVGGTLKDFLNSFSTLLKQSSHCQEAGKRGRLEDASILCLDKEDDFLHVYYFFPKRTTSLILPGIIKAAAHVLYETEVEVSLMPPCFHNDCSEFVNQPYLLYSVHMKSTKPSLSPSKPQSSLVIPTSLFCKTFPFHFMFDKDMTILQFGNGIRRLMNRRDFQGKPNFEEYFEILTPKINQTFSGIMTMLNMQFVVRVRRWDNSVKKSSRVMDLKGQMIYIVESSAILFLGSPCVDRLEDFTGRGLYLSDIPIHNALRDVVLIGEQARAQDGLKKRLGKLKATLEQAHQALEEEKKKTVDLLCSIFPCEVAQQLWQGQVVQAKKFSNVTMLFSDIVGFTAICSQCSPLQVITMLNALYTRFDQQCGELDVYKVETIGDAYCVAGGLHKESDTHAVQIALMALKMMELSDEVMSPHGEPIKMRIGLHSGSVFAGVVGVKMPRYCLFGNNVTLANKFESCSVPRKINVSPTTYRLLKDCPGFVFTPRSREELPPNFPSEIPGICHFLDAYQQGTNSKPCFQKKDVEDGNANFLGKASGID
Method: (Assay Run with SNP Incubation)
(§1) Human embryonic kidney cells (HEK293), endogenously expressing soluble guanylate cyclase (sGC), were used to evaluate the activity of test compounds. Compounds stimulating the sGC receptor should cause an increase in the intracellular concentration of cGMP. HEK 293 cells were seeded in Dulbecco's Modification of Eagle's Medium supplemented with fetal bovine serum (10% final) and L-glutamine (2 mM final) in a 200 μL volume at a density of 1×10^5 cells/well in a poly-D-lysine coated 96 well flat bottom plate and grown overnight at 37° C. Medium was aspirated and cells were washed with 1× Hank's Buffered Saline Salt Solution (200 μL). Cells were then incubated for 15 minutes at 37° C. with 200 μL of a 0.5 mM 3-isobutyl-1-methylxanthine (IBMX) solution. Test article and sodium nitroprusside solutions (x μM concentration for test article solution and 10 μM concentration for SNP solution; wherein x is one of the following concentrations);
were then added to the assay mixture (2 μL each) and the resulting mixture incubated at 37° C. for 10 minutes. After the 10 minute incubation, the assay mixture was aspirated and 0.1M HCl (200 μL) was added to the cells. The plate was incubated at 4° C. for 30 minutes in the 0.1M HCl to stop the reaction and lyse the cells. The plates were then centrifuged at 1,200 g for 5 minutes at room temperature. Supernatants were collected and transferred to a new flat bottom 96 well plate for analysis by HPLC-MS. Vehicle controls were carried out using DMSO (1%) solutions. A known sGC stimulator, BAY 41-2272, was used as the positive control. Samples were diluted with an equal volume of 1 M Ammonium Acetate (pH 7) to neutralize samples for better chromatography. A 2×cGMP standard solution was prepared in 0.1 M HCl and then diluted with an equal volume of 1 M Ammonium Acetate, with the following final concentrations in nM: 1024, 512, 256, 128, 64, 32, 16, 8, 4, 2, 1. cGMP concentrations in the test plates were determined from each sample using the LC/MS conditions shown in Table 2 below and the calculated cGMP standard curve. EC50 values were calculated from concentration-response curves generated with GraphPad Prism Software.
The biological activities of some of the compounds of Formula I or Formula Ib determined with the sGC-HEK assay with SNP incubation are summarized in Tables 3A and 3B.

[3] = target: T1, soluble guanylate cyclase (sGC); experiment: HEK whole cell assay using HTRF procedure (with SNP incubation); format: cell-based; conditions: HTRF cGMP read-out, 10 μM SNP; for Emax: relative to BAY 41-2272 at 10 μM with 100 μM SNP, read-out: HEK assay Emax-unconstrained (Percent); for EC50: top of curve not fitted to 100%, read-out: HEK assay EC50-unconstrained
Method: Example 2B, HEK whole cell assay using HTRF procedure (Assay Run with SNP Incubation)
as §1, with “enzyme” for “receptor”
were then added to the assay mixture (2 μL each) and the resulting mixture incubated at 37° C. for 10 minutes. After the 10 minute incubation, the assay mixture was aspirated and 0.1M HCl (200 μL) was added to the cells. The plate was incubated at 4° C. for 30 minutes in the 0.1M HCl to stop the reaction and lyse the cells. The plates were then centrifuged at 1,200 g for 5 minutes at room temperature.
cGMP levels were determined using a cGMP HTRF assay (Cisbio Product #62GM2PEC). For each sample, 5 uL of HEK assay supernatant was diluted 1:5 in HTRF kit assay diluent and transferred to a well of the assay plate, and the HTRF assay was performed according to the HTRF kit manufacturer's instructions. Sample calculations were performed using high and low controls, where high control was supernatant from HEK assay performed in the presence of 10 uM Bay 41-2272+100 uM SNP, and the low control was the supernatant from the HEK assay performed in the presence of vehicle. A cGMP standard solution was prepared in 0.1 M HCl and diluted in order to perform a cGMP standard curve using the HTRF assay. Using Mean Ratio data from the HTRF assay, sample date were normalized according to the equation: 100*(Sample−Low Control)/(High Control−Low Control). Data were fit to a 3-parameter log agonist dose response (Top (% EMax), Bottom, log EC50) using Graphpad (Prism Software). Data in Table 3C was obtained using this modified assay procedure.

Compound	Emax at 1 µM [2] [%]	Emax at 10 µM [2] [%]	Emax at 30 µM [2] [%]	Emax [2] [%]	EC50 [2] [nM]	further results
Nc1nc(-c2nn(Cc3ccccc3F)c3ncccc23)ncc1C1CC1 [BAY 41-2272]						pulmonary vasodilation [1]: dose dependent pulmonary vasodilation; effect on mean arterial pressure [1]: without significant effect; transpulmonary cGMP release [1]: increased transpulmonary cGMP release
Nc1nc(-c2nn(Cc3ccccc3F)c3ncccc23)nc(N)c1N1CCOCC1 [BAY 41-8543]						magnitude and duration of pulmonary vasodilation induced by iNO ([1]; after inhaling microparticles, lambs): augmented; pulmonary vasodilation [1]: dose dependent pulmonary vasodilation; effect on mean arterial pressure [1]: without significant effect; systemic arterial oxygenation [1]: increased systemic arterial oxygenation; transpulmonary cGMP release [1]: increased transpulmonary cGMP release
O=C(O)CCCCN(CCc1ccccc1OCc1ccc(CCc2ccccc2)cc1)Cc1ccc(C(=O)O)cc1 [BAY 58-2667]						pulmonary vasodilation and transpulmonary cGMP release after treatment with ODQ ([1]; inhaled microparticles after intravenous ODQ, lambs): greatly enhanced; pulmonary vasodilation [1]: dose dependent pulmonary vasodilation; effect on mean arterial pressure [1]: without significant effect; systemic arterial oxygenation [1]: increased systemic arterial oxygenation; transpulmonary cGMP release [1]: increased transpulmonary cGMP release
O=c1[nH]c(-n2cc(-c3ccon3)c(Cc3ccccc3F)n2)ncc1F [Compound I-1]	60 to 80	80 to 100	80 to 100	80 to 100	10 to 100	
CC(C)[C@@H](C(=O)O)N(C)c1nc(-n2cc(-c3ccon3)c(Cc3ccccc3F)n2)ncc1F [Compound I-4]	80 to 100	100 to 120	100 to 120	100 to 120	10 to 100	
OCC(CO)Nc1nc(-n2cc(-c3ccon3)c(Cc3ccccc3F)n2)ncc1F [Compound I-5]						Emax [3]: 80 to 100%; EC50 [3]: 100 to 500 nM
Fc1ccccc1Cc1nn(-c2ncc(F)c(N3CCOCC3)n2)cc1-c1ccon1 [Compound I-6]						Emax [3]: 80 to 100%; EC50 [3]: 100 to 500 nM
OCC(O)Cn1ccc2cnc(-n3cc(-c4ccon4)c(Cc4ccccc4F)n3)nc21 (stereo not shown) [Compound I-7]						Emax [3]: 80 to 100%; EC50 [3]: 100 to 500 nM
Nc1ccnc(-n2cc(-c3ccon3)c(Cc3ccccc3F)n2)n1 [Compound I-9]	60 to 80	80 to 100	80 to 100	80 to 100	100 to 500	
COc1nc(-n2cc(-c3ccon3)c(Cc3ccccc3F)n2)ncc1F [Compound I-10]	20 to 40	20 to 40	20 to 40	20 to 40	500 to 1000	
O=c1onc2cnc3ccccc3n12 [ODQ, 1H-[1,2,4]oxadiazolo[4,3-a]quinoxalin-1-one]						pulmonary vasodilator effect of iNO ([1]; intravenous administration, lambs): markedly reduced
